Here are results for three compounds from patent US20240398893A1, “ANTI-CORONAVIRUS POLYPEPTIDE AS WELL AS DERIVATIVE AND APPLICATION THEREOF” (priority 2021, published 2024).

What is called EC50 is the concentration giving half of the maximal effect. A low value points to higher potency in that assay.

Structures are written as SMILES.

For the assay, the system named is pseudovirus of SARS-COV-2 variant Omicron (BA.1). The following applies: pseudovirus of variant Omicron (BA.1).

With `CC[C@H](C)[C@H](NC(=O)CNC(=O)[C@H](CO)NC(=O)[C@@H](NC(=O)[C@H](CC(=O)O)NC(=O)CNC(=O)[C@H](Cc1ccccc1)NC(=O)[C@H](CCCCN)NC(=O)[C@@H](N)C(C)C)[C@@H](C)CC)C(=O)N[C@@H](CC(N)=O)C(=O)N[C@@H](C)C(=O)N[C@@H](CO)C(=O)N[C@H](C(=O)N[C@H](C(=O)N[C@@H](CC(N)=O)C(=O)N[C@H](C(=O)N[C@@H](CCCCN)C(=O)N[C@@H](CCC(=O)O)C(=O)N[C@@H](CCC(=O)O)C(=O)N[C@H](C(=O)N[C@@H](CC(=O)O)C(=O)N[C@@H](CCCNC(=N)N)C(=O)N[C@@H](CC(C)C)C(=O)N[C@@H](Cc1ccc(O)cc1)C(=O)N[C@@H](CCC(=O)O)C(=O)N[C@H](C(=O)N[C@H](C(=O)N[C@@H](CCCCN)C(=O)N[C@@H](CC(N)=O)C(=O)N[C@@H](CC(C)C)C(=O)N[C@@H](CC(N)=O)C(=O)N[C@@H](CCC(=O)O)C(=O)N[C@@H](CO)C(=O)N[C@@H](CC(C)C)C(=O)N[C@H](C(=O)N[C@@H](CC(=O)O)C(=O)N[C@@H](CC(C)C)C(=O)N[C@@H](CCC(N)=O)C(=O)N[C@@H](CCC(=O)O)C(=O)N[C@@H](CC(C)C)C(=O)N[C@@H](CSCC(=O)NCCOCCOCCOCCOCC(=O)O[C@H]1CC[C@@]2(C)C(=CC[C@H]3[C@@H]4CC[C@H]([C@H](C)CCCC(C)C)[C@@]4(C)CC[C@@H]32)C1)C(N)=O)[C@@H](C)CC)C(C)C)C(C)C)[C@@H](C)CC)[C@@H](C)CC)C(C)C)C(C)C` [P3-3-PEG-Chol], a half-maximal effect (EC50) was put at 571 nM.
In turn, `CC[C@H](C)[C@H](NC(=O)CNC(=O)[C@H](CO)NC(=O)[C@@H](NC(=O)[C@H](CC(=O)O)NC(=O)CNC(=O)[C@H](Cc1ccccc1)NC(=O)[C@H](CCCCN)NC(=O)[C@@H](N)C(C)C)[C@@H](C)CC)C(=O)N[C@@H](CC(N)=O)C(=O)N[C@@H](C)C(=O)N[C@@H](CO)C(=O)N[C@H](C(=O)N[C@H](C(=O)N[C@@H](CC(N)=O)C(=O)N[C@H](C(=O)N[C@@H](CCCCN)C(=O)N[C@@H](CCC(=O)O)C(=O)N[C@@H](CCC(=O)O)C(=O)N[C@H](C(=O)N[C@@H](CC(=O)O)C(=O)N[C@@H](CCCNC(=N)N)C(=O)N[C@@H](CC(C)C)C(=O)N[C@@H](Cc1ccc(O)cc1)C(=O)N[C@@H](CCC(=O)O)C(=O)N[C@H](C(=O)N[C@H](C(=O)N[C@@H](CCCCN)C(=O)N[C@@H](CC(N)=O)C(=O)N[C@@H](CC(C)C)C(=O)N[C@@H](CC(N)=O)C(=O)N[C@@H](CCC(=O)O)C(=O)N[C@@H](CO)C(=O)N[C@@H](CC(C)C)C(=O)N[C@H](C(=O)N[C@@H](CC(=O)O)C(=O)N[C@@H](CC(C)C)C(=O)N[C@@H](CCC(N)=O)C(=O)N[C@@H](CCC(=O)O)C(=O)N[C@@H](CC(C)C)C(=O)O)[C@@H](C)CC)C(C)C)C(C)C)[C@@H](C)CC)[C@@H](C)CC)C(C)C)C(C)C` [P3-3] had a concentration giving a half-maximal response (EC50) of 22700 nM.
To `CC[C@H](C)[C@H](NC(=O)CNC(=O)[C@H](CO)NC(=O)[C@@H](NC(=O)[C@H](CC(=O)O)NC(=O)CNC(=O)[C@H](Cc1ccccc1)NC(=O)[C@H](CCCCN)NC(=O)[C@@H](N)C(C)C)[C@@H](C)CC)C(=O)N[C@@H](CC(N)=O)C(=O)N[C@@H](C)C(=O)N[C@@H](CO)C(=O)N[C@H](C(=O)N[C@H](C(=O)N[C@@H](CC(N)=O)C(=O)N[C@H](C(=O)N[C@@H](CCCCN)C(=O)N[C@@H](CCC(=O)O)C(=O)N[C@@H](CCC(=O)O)C(=O)N[C@H](C(=O)N[C@@H](CC(=O)O)C(=O)N[C@@H](CCCNC(=N)N)C(=O)N[C@@H](CC(C)C)C(=O)N[C@@H](Cc1ccc(O)cc1)C(=O)N[C@@H](CCC(=O)O)C(=O)N[C@H](C(=O)N[C@H](C(=O)N[C@@H](CCCCN)C(=O)N[C@@H](CC(N)=O)C(=O)N[C@@H](CC(C)C)C(=O)N[C@@H](CC(N)=O)C(=O)N[C@@H](CCC(=O)O)C(=O)N[C@@H](CO)C(=O)N[C@@H](CC(C)C)C(=O)N[C@H](C(=O)N[C@@H](CC(=O)O)C(=O)N[C@@H](CC(C)C)C(=O)N[C@@H](CCC(N)=O)C(=O)N[C@@H](CCC(=O)O)C(=O)N[C@@H](CC(C)C)C(=O)NCC(=O)N[C@@H](CO)C(=O)NCC(=O)N[C@@H](CO)C(=O)NCC(=O)N[C@@H](CSCC(=O)O[C@H]1CC[C@@]2(C)C(=CC[C@H]3[C@@H]4CC[C@H]([C@H](C)CCCC(C)C)[C@@]4(C)CC[C@@H]32)C1)C(N)=O)[C@@H](C)CC)C(C)C)C(C)C)[C@@H](C)CC)[C@@H](C)CC)C(C)C)C(C)C` [P3-3-GS-Chol] belongs 1730 nM.
